Results reported in patent publication US20070099877A1, “N-aryl-thienopyrimidin-4-amines and analogs as activators of caspases and inducers of apoptosis and the use thereof” (Cytovia, Inc., priority 2005, published 2007).
Where a name gives a salt, the structure may show the parent alone. Read-outs that look alike come from different tables or passages of the source.

Key:
Type in all cases: cell-based
[1] = test system: human breast cancer cell line MDAMB435; assay: Inhibition of cell proliferation (GI50) in MDAMB435 cells
Experimental: (§1) Human breast cancer cell lines T-47D, MX-1 and MDAMB435, human colon cancer cell line HT29, and human lung cancer cell line H1299 were grown and harvested as in Example 75. An aliquot of […] of cells (4.4×10^4 cells/mL) was added to a well of a 96-well microtiter plate containing 5 μL of a 10% DMSO in RPMI-1640 media solution containing 10 nM to 100 μM of N-(2,5-dimethoxyphenyl)-2-methylthieno[3,2-d]pyrimidin-4-amine (1 nM to 10 μM final). An aliquot of 45 μL of cells was added to a well of a 96-well microtiter plate containing 5 μL of a 10% DMSO in RPMI-1640 media solution without compound as the control sample for maximal cell proliferation (Lmax). The samples were mixed by agitation and then incubated at 37° C. for 48 h in a 5% CO2-95% humidity incubator. After incubation, the samples were removed from the incubator and 25 μL of CellTiter-Glo™ reagent (Promega) was added. The samples were mixed by agitation and incubated at room temperature for 10-15 min. Plates were then read using a luminescent plate reader (Model SPECTRAfluor Plus, Tecan) to give Ltest values.
(§2) Baseline for GI50 (dose for 50% inhibition of cell proliferation) of initial cell numbers was determined by adding an aliquot of 45 μL of cells or 45 μL of media, respectively, to wells of a 96-well microtiter plate containing 5 μL of a 10% DMSO in RPMI-1640 media solution. The samples were mixed by agitation and then incubated at 37° C. for 0.5 h in a 5% CO2-95% humidity incubator. After incubation, the samples were removed from the incubator and 25 μL of CellTiter-Glo™ reagent (Promega) was added. The samples were mixed by agitation and incubated at 37° C. for 10-15 min at room temperature in a 5% CO2-95% humidity incubator. Fluorescence was read as above, (LStart) defining luminescence for initial cell number used as baseline in GI50 determinations.
(§3) GI50 (dose for 50% inhibition of cell proliferation) is the concentration where [(LTest−Lstart)/(LMax−Lstart)]=0.5.

[2] = test system: human breast cancer cell line T-47D; assay: Caspase cascade activation (DEVD-R110 fluorogenic substrate) in T-47D cells; settings: Homo sapiens, T47D
Method in brief: (§4)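 Cells were exposed to compound at 0.016 to 10 μM final for 24 h or 48 h at 37 °C. They were then lysed with 14 μM N-(Ac-DEVD)-N′-ethoxycarbonyl-R110 in lysolecithin/DTT/PIPES buffer pH 7.2 for 3 h at room temperature (ex 485/em 530 nm). EC50 came from a sigmoidal fit of net RFU relative to untreated control.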

[3] = test system: human breast cancer cell line T-47D; assay: Inhibition of cell proliferation (GI50, CellTiter-Glo) in T-47D cells; settings: T47D cells
Experimental: as §1, §2, §3

[4] = test system: human sarcoma cell line MES-SA; assay: Inhibition of cell proliferation (GI50) in MES-SA cells; settings: Table IV, read-out: GI50 in Multi-Cancer Cells MES-SA
Experimental: as §1, §2, §3
(§5) Several compounds were tested in multi cancer cell lines, including human breast cancer cell lines T-47D, MX-1, SKBR3 and MDAMB435, human hepatocellular carcinoma cell line SNU398, human colon carcinoma cell line HCT116, human sarcoma cell line MES-SA and multi-drug resistant (MDR) human sarcoma cell line MES-SA/ADR, murine leukemia cell line P388 and multi-drug resistant (MDR) murine leukemia cell line P388ADR, and the data are summarized in Table IV.

[5] = test system: human lung cancer cell line H1299; assay: Caspase cascade activation in H1299 cells; settings: NCI-H1299, 24 h, read-out: Caspase activation Potency EC50 H1299 (24 h)
Method in brief: as §4

[6] = test system: multi-drug resistant (MDR) murine leukemia cell line P388ADR; assay: Inhibition of cell proliferation (GI50) in P388/ADR cells; settings: Mus musculus, Table IV, read-out: GI50 in Multi-Cancer Cells P388/ADR
Experimental: as §1, §2, §3, §5

[7] = test system: human lung cancer cell line H1299; assay: Inhibition of cell proliferation (GI50) in H1299 cells; settings: NCI-H1299, Table III, 48 h
Experimental: as §1, §2, §3

[8] = test system: human B cell lymphoblastoid cell line Ramos; assay: Caspase cascade activation in Ramos cells; settings: 48 h, read-out: Caspase Activation Potency EC50 Ramos
[9] = test system: breast cancer cell line SKBR3; assay: Caspase cascade activation in SKBR3 cells; settings: Homo sapiens, SK-BR-3, 48 h, read-out: Caspase Activation Potency EC50 SKBR3
[10] = MDA-MB-435, Table IV, read-out: GI50 in Multi-Cancer Cells MDAMB435
[11] = 24 h, T47D cells, 24 h, read-out: Caspase activation Potency EC50 T47D (24 h)
[12] = 48 h, T-47D cells, 48 h, read-out: Caspase activation Potency EC50 T-47D (48 h)
[13] = Table IV, read-out: GI50 in Multi-Cancer Cells T47D

GI50 ([1]; MDA-MB-435, Table III, 48 h, read-out: GI50 in Cancer Cells MDAMB435) [nM] | GI50 [1, 10] [nM] | EC50 [2, 11] [nM] | EC50 [2, 12] [nM] | GI50 ([3]; Table III, 48 h, read-out: GI50 in Cancer Cells T47D) [nM] | GI50 [3, 13] [nM] | GI50 [4] [nM] | EC50 [5] [nM] | GI50 [6] [nM] | GI50 [7] [nM] | EC50 [8] [nM] | EC50 [9] [nM] | SMILES
756 | 1070 | 61 | 105 | 65 | 340 | 5190 | 2910 | 2600 | 1040 |  |  | COc1ccc(OC)c(Nc2ncnc3ccsc23)c1 [Example 2, N-(2,5-Dimethoxyphenyl)thieno[3,2-d]pyrimidin-4-amine]
 | 105 | 38 | 62 |  | 20 | 364 | 303 | 296 |  | 582 | 77 | COc1cc(Nc2ncnc3ccsc23)cc(OC)c1 [Example 12, N-(3,5-Dimethoxyphenyl)thieno[3,2-d]pyrimidin-4-amine hydrochloride]
